Several values for one entry are separate records, joined by “and”; a condition that tells them apart may be missing. Equal values may be shown once.
Tests used:
[1] = test system: Salmonella typhimurium TA 100; format: cell-based; details: TA 100, +s9, positive control, concentration not given
Description: This assay helps to identify substances that can produce genetic damage that leads to gene mutations. Mutant strains of Salmonella typhimurium that are used in AMES assay cannot synthesize histidine, and are very susceptible to additional mutations because they lack the normal repair mechanisms found in bacteria. These mutant strains are more permeable than wild-type bacteria to external chemicals, including potential mutagens. In order for these cells to survive on a plate that lacks histidine, they must regain the ability to synthesize histidine by undergoing another mutation that corrects the original mutation that prevented the production of the missing enzyme. This type of mutation is known as a back mutation, or reversion, because this second mutation returns the mutant to the wild-type (prototrophic) phenotype. This reversion can happen spontaneously due to incorrect DNA replication or as the result of a mutagen.
In this assay specific strains of the bacteria Salmonella typhimurium (TA 98, TA 100) were used to detect mutations. […]
Briefly, 0.5 ml of S9 mix (or 0.1 M phosphate buffer, pH 7.4), 0.1 ml of bacterial culture and 0.1 ml of test solution (or solvent) were added to each tube. […] After incubation for approximately 48 h the revertant colonies were counted.

[2] = test system: Salmonella typhimurium TA 98; assay: Ames Salmonella mutagenicity test, strain TA 98; format: cell-based; details: TA 98, +s9, positive control, concentration not given
[3] = Superoxide anion scavenging activity
Experimental: Prepared all the solutions in this experiment using phosphate buffer (pH 7.4). Added 1 ml of NBT (156 μM), 1 ml of NADH (468 μM) and 3 ml of test samples to all test tubes. The reaction was started by adding 100 ml of PMS (60 μM) and incubated the mixture at 25° C. for 5 min followed by measurement of absorbance at 560 nm. The percentage of scavenging was calculated using formula: % Scavenging=Ac−As/Ac×100 Where AC was the absorbance of the control (blank) and As was the absorbance in the presence of the composition.

[4] = DPPH radical scavenging assay
Experimental: The free radical scavenging capacity of the test sample was determined using DPPH scavenging assay. DPPH solution was prepared in 95% methanol. Freshly prepared DPPH solution was taken in test tubes and different concentration of test samples were added and incubated for 20 min. The absorbance was read at 517 nm using a spectrophotometer. Blank was prepared containing the same volume of reaction mixture without any tested samples. The percentage of scavenging was calculated using the formula: % Scavenging=Ac−As/Ac×100 Where AC was the absorbance of the control (blank) and AS was the absorbance in the presence of the composition (Braca et al., 2001). Results

[5] = test system: calf thymus DNA; assay: Protective effect on DNA scission induced by hydroxyl radical
Experimental: In this assay hydroxyl radicals are typically generated within a mixture of ascorbic acid, H2O2 and Fe3+-ethylenediaminetetracetic acid (EDTA); those radicals that are not scavenged by other components of the reaction mixture will eventually attack deoxyribose, thus degrading it into a series of fragments.
The experiment was conducted using calf thymus DNA. Briefly, the sample was dissolved in ethanol at 1 mg/mL. 50 μl of different concentration of sample was then separately taken into mini tubes followed by addition of 400 μL of phosphate buffer (0.2 mol/L, pH 7.4). Subsequently, 50 μL DNA sodium, 50 μL H2O2, 50 μL FeCl3 and 50 μL Na2EDTA (1 mmol/L) were added. The reaction was initiated by adding 50 μL ascorbic acid (18 mmol/L) and the total volume of the reaction mixture was adjusted to 800 μL with buffer. After incubation in a water bath at 55° C. for 20 min, the reaction was terminated by adding 250 μL TCA.
The color was then developed by addition of 150 μL of TBA and heating in an oven at 105° C. for 15 min. The mixture was cooled and absorbance was measured at 532 nm against the buffer (as blank). The percent of protection against DNA damage is expressed Protective effect %=(1−A/A0)×100 Where A0 is the absorbance of the mixture without sample, and A is the absorbance of the mixture with sample. Results

Nc1ccc2cc3ccccc3cc2c1 [2AF, 2-aminoanthracene]
Revertant colonies/plate [1]: 2737 ± 4.9 colonies/plate
Revertant colonies/plate [2]: 1560 ± 3.53 colonies/plate

O=C1O[C@H]([C@@H](O)CO)C(O)=C1O [Ascorbic acid]
% inhibition (superoxide scavenging) ([3]; 20 μg/ml): 84.80%
Absorbance @517 nm (superoxide scavenging) ([3]; 20 μg/ml): 0.038
% inhibition (superoxide scavenging) ([3]; 40 μg/ml): 85.20%
Absorbance @517 nm (superoxide scavenging) ([3]; 40 μg/ml): 0.037
% inhibition (superoxide scavenging) ([3]; 60 μg/ml): 88.40%
Absorbance @517 nm (superoxide scavenging) ([3]; 60 μg/ml): 0.029
% inhibition (superoxide scavenging) ([3]; 80 μg/ml): 89.20%
Absorbance @517 nm (superoxide scavenging) ([3]; 80 μg/ml): 0.027
% inhibition (superoxide scavenging) ([3]; 100 μg/ml): 89.60%
Absorbance @517 nm (superoxide scavenging) ([3]; 100 μg/ml): 0.026
% inhibition (DPPH scavenging) ([4]; 20 μg/ml): 83.21%
Absorbance @517 nm ([4]; 20 μg/ml): 0.046
% inhibition (DPPH scavenging) ([4]; 40 μg/ml): 90.88%
Absorbance @517 nm ([4]; 40 μg/ml): 0.025
% inhibition (DPPH scavenging) ([4]; 60 μg/ml): 94.53%
Absorbance @517 nm ([4]; 60 μg/ml): 0.015
% inhibition (DPPH scavenging) ([4]; 80 μg/ml): 94.89%
Absorbance @517 nm ([4]; 80 μg/ml): 0.014
% inhibition (DPPH scavenging) ([4]; 100 μg/ml): 96.72%
Absorbance @517 nm ([4]; 100 μg/ml): 0.009
% inhibition (DPPH scavenging) ([4]; 100 μg/ml, listed as ascorbic acid): 96.71%

COc1ccc(O)c(C(C)(C)C)c1 [BHA]
% protective effect against DNA damage ([5]; 10 μg/ml): 15.79 ± 0.89%
% protective effect against DNA damage ([5]; 20 μg/ml): 19.25 ± 1.09%
% protective effect against DNA damage ([5]; 40 μg/ml): 32.50 ± 2.12%
% protective effect against DNA damage ([5]; 60 μg/ml): 39.16 ± 0.33%
% protective effect against DNA damage ([5]; 80 μg/ml): 43.04 ± 0.29%
% protective effect against DNA damage ([5]; 100 μg/ml): 51.37% and 51.37 ± 4.06%

Source: US12370164B2, “Chlorogenic acid composition for promoting a healthy body weight” (Vidya Herbs, Inc., priority 2017, dated 2025)
